From ChEMBL document CHEMBL5137000, “Discovery of a novel and potent inhibitor with differential species-specific effects against NLRP3 and AIM2 inflammasome-dependent pyroptosis” (Eur J Med Chem, 2022)
Active and inactive are the calls of the source. The rule behind the calls is not given here.

Target: NACHT, LRR and PYD domains-containing protein 3 (Homo sapiens) (UniProt Q96P20)
Assay: Inhibition of NLRP3 inflammasome activation in LPS-primed human THP-1 cells assessed as reduction in nigericin-induced IL-1beta release in supernatant pretreated for 30 mins followed by nigericin stimulation and measured after 30 min by ELISA
Assay type: cell-based
Conditions: time 60.0 min

NACHT, LRR and PYD domains-containing protein 3 (Homo sapiens), sequence (Q96P20 whole entry, the tested form may be a part): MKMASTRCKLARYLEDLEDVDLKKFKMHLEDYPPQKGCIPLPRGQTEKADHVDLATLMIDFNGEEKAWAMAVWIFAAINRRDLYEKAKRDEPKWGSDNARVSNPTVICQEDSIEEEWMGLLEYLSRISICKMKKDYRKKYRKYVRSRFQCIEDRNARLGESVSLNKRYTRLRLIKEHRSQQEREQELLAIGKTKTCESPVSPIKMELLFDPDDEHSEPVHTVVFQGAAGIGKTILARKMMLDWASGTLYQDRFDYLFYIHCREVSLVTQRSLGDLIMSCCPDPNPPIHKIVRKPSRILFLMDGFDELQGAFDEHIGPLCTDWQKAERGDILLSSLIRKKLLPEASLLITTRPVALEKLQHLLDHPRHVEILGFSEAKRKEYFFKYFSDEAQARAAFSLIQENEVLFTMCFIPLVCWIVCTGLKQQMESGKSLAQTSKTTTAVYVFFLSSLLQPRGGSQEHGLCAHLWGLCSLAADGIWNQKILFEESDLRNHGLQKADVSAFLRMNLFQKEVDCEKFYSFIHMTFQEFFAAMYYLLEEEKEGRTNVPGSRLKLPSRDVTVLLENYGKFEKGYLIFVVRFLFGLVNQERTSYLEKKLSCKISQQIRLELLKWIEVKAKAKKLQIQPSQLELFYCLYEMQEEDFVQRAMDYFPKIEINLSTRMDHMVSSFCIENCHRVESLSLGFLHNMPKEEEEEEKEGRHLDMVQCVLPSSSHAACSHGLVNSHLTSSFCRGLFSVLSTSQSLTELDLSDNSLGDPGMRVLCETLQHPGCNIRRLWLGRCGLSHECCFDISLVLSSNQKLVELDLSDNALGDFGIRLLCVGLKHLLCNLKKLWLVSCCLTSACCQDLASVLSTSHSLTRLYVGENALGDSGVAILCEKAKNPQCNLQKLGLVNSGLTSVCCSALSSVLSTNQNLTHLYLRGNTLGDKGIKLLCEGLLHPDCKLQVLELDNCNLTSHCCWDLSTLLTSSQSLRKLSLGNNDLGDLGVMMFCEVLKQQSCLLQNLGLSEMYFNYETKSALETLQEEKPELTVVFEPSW

inhibition: Active
Structure (SMILES): COc1ccc(CC(=O)Nc2cccc(B(O)O)c2)cc1
